Publication PMC6968633, “Synthesis, antibacterial and anticancer activity, and docking study of aminoguanidines containing an alkynyl moiety” (Journal of Enzyme Inhibition and Medicinal Chemistry, 2019)
Converted amounts (≈) assume the structure as drawn.

Legend:
[1] = tested on: Staphyiococcus aureus CMCC 25923; assay: Antibacterial MIC, serial dilution; type: cell-based, Staphylococcus aureus; conditions: Staphylococcus aureus, CMCC25923; S. aureus CMCC 25923, 24 h, 37 °C; read-out: MIC
Description: (§1) Test bacteria were grown to mid-log phase in Mueller–Hinton broth (MHB) or Tryptone Soya Broth (TSB) and diluted 1000-fold in the same medium. Bacteria (10^5 CFU/mL) were inoculated into MHB or TSB and dispensed at 0.2 ml/well into a 96-well microtiter plate. As positive controls, gatifloxacin, moxifloxacin, norfloxacin, oxacillin, and penicillin were used. […] Bacterial growth was determined by measuring the absorption at 630 nm using a microplate reader. All experiments were carried out three times.
(§2) The evaluation of antibacterial activity of all compounds (3a–3j and 6a–6k) was performed by a serial dilution method to determine the MIC against a panel of pathogens comprising five Gram-positive strains (S. aureus (CMCC(B) 26003 and CMCC 25923), Streptococcus mutans BNCC 336931, Enterococcus faecalis CMCC 29212, and Bacillus subtilis CMCC 63501), four Gram-negative strains (E. coli (CMCC 25922 and CMCC 44568) and P. aeruginosa (CMCC 27853 and CMCC 10104)), as well as three methicillin-resistant clinical isolates (S. aureus ATCC 43300 and ATCC 33591, P. aeruginosa ATCC BAA-2111). The results are described in Tables 1 and 2. Gatifloxacin, moxifloxacin, norfloxacin, oxacillin, and penicillin were used as positive controls.

[2] = tested on: Bacillus subtilis CMCC 63501; assay: Antibacterial MIC, serial dilution; type: cell-based; conditions: Bacillus subtilis, CMCC63501; B. subtilis CMCC 63501, 24 h, 37 °C; read-out: MIC
Description: as §1, §2

[3] = tested on: Enterococcus faecalis CMCC 29212; assay: Antibacterial MIC, serial dilution; type: cell-based; conditions: Enterococcus faecalis, CMCC29212; E. faecalis CMCC 29212, 24 h, 37 °C; read-out: MIC
Description: as §1, §2

[4] = tested on: Escherichia coli CMCC 25922; assay: Antibacterial MIC, serial dilution; type: cell-based; conditions: Escherichia coli, CMCC25922; E. coli CMCC 25922, 24 h, 37 °C; read-out: MIC
Description: as §1, §2

[5] = tested on: Escherichia coli CMCC 44568; assay: Antibacterial MIC, serial dilution; type: cell-based; conditions: Escherichia coli, CMCC44568; E. coli CMCC 44568, 24 h, 37 °C; read-out: MIC
Description: as §1, §2

[6] = tested on: Pseudomonas aeruginosa CMCC 10104; assay: Antibacterial MIC, serial dilution; type: cell-based; conditions: Pseudomonas aeruginosa, CMCC10104; P. aeruginosa CMCC 10104, 24 h, 37 °C; read-out: MIC
Description: as §1, §2

[7] = tested on: Pseudomonas aeruginosa CMCC 27853; assay: Antibacterial MIC, serial dilution; type: cell-based; conditions: Pseudomonas aeruginosa, CMCC27853; P. aeruginosa CMCC 27853, 24 h, 37 °C; read-out: MIC
Description: as §1, §2

[8] = tested on: Staphylococcus aureus CMCC(B)26003; assay: Antibacterial MIC, serial dilution; type: cell-based; conditions: Staphylococcus aureus; S. aureus CMCC(B)26003, 24 h, 37 °C; read-out: MIC
Description: as §1, §2

[9] = tested on: Streptococcus mutans BNCC 336931; assay: Antibacterial MIC, serial dilution; type: cell-based; conditions: Streptococcus mutans, BNCC336931; S. mutans BNCC 336931, 24 h, 37 °C; read-out: MIC
Description: as §1, §2

[10] = tested on: Staphylococcus aureus ATCC 33591; assay: Antibacterial MIC, multidrug-resistant clinical isolate; type: cell-based; conditions: Staphylococcus aureus, ATCC33591; multidrug-resistant S. aureus ATCC 33591; read-out: MIC
Description: as §1, §2

[11] = tested on: Staphylococcus aureus ATCC 43300; assay: as above; type: cell-based; conditions: Staphylococcus aureus, ATCC43300; multidrug-resistant S. aureus ATCC 43300; read-out: MIC
Description: as §1, §2

A549 = assay: Cytotoxicity, CCK-8 assay; type: cell-based; conditions: Homo sapiens, A549 lung cancer cells, 48 h
Description: (§3) A lung cancer cell line (A549), gastric cancer cell line (SGC7901) and human hepatocytes (L02) were used to test the anticancer activity and cytotoxicity of the new compounds. 5-Fluorouracil (5-FU) was used as the positive control against cancer cell lines. The A549, SGC7901 and L02 cells were grown in Dulbecco’s modified Eagle’s medium (DMEM) supplemented with 10% foetal bovine serum (FBS) and antibiotics (100 U/mL penicillin-streptomycin). Cells at 80–90% confluence were split by trypsin (0.25% in PBS; pH 7.4), and the medium was changed at 24 h intervals. The cells were cultured at 37 °C in a 5% CO2 incubator. The cells were passaged three times, then approximately 1 × 10^4 cells were seeded into each well of a 96-well plate and allowed to incubate to allow attachment of the cells to the surface. After 24 h, the medium was replaced with DMEM supplemented with 10% FBS containing various concentrations (0.1, 0.3, 1, 3, 10, and 30 μg/mL) of test compounds. Each concentration was tested in triplicate. After 48 h treatment, 20 µL of CCK-8 solution was added to each well and the optical density measured at 450 nm after 3 h using a microplate reader. The IC50 values were defined as the concentrations inhibiting 50% of cell growth.

SGC7901 = assay: Cytotoxicity, CCK-8 assay; type: cell-based; conditions: Homo sapiens, SGC-7901, SGC7901 gastric cancer cells, 48 h
Description: as §3

L02 = assay: Cytotoxicity, CCK-8 assay, normal cell line; type: cell-based; conditions: L02 normal human hepatocytes, 48 h
Description: as §3

[12] = tested on: Pseudomonas aeruginosa ATCC BAA-2111; assay: Antibacterial MIC, multidrug-resistant clinical isolate; type: cell-based; conditions: ATCCBAA2111, multidrug-resistant P. aeruginosa ATCC BAA-2111
Description: as §1, §2

tested bacterial strains = assay: Antibacterial MIC, panel of tested bacterial strains; type: cell-based; conditions: against almost all of the tested strains
Description: as §1, §2

SMILES	MIC [1] [µg/mL]	MIC [2] [µg/mL]	MIC [3] [µg/mL]	MIC [4] [µg/mL]	MIC [5] [µg/mL]	MIC [6] [µg/mL]	MIC [7] [µg/mL]	MIC [8] [µg/mL]	MIC [9] [µg/mL]	MIC [10] [µg/mL]	MIC [11] [µg/mL]	melting point [°C]	MIC [12] [µg/mL]	IC50 (A549) [µg/mL]	IC50 (SGC7901) [µg/mL]	IC50 (L02) [µg/mL]	MIC (tested bacterial strains) [µg/mL]
N=C(N)NN=Cc1ccc(C#CC#Cc2ccccc2F)cc1 [Compound 6b, 2-(4-((2-Fluorophenyl)buta-1,3-diyn-1-yl)benzylidene)hydrazine-1-carboximidamide]	1 (≈ 3.29 µM)	4 (≈ 13.1 µM)	0.5 (≈ 1.64 µM)	8 (≈ 26.3 µM)	128 (≈ 421 µM)	128 (≈ 421 µM)	> 128	0.25 (≈ 0.821 µM)	0.5 (≈ 1.64 µM)	1 (≈ 3.29 µM)	8 (≈ 26.3 µM)	218 to 220	–	2.22 (≈ 7.29 µM)	1.37 (≈ 4.5 µM)	18 (≈ 59.1 µM)	–
N=C(N)NN=Cc1ccc(C#CC#Cc2ccc(F)cc2)cc1 [Compound 6d, 2-(4-((4-Fluorophenyl)buta-1,3-diyn-1-yl)benzylidene)hydrazine-1-carboximidamide]	4 (≈ 13.1 µM)	> 128	128 (≈ 421 µM)	> 128	> 128	> 128	> 128	64 (≈ 210 µM)	> 128	–	–	206 to 210	–	–	–	–	≥ 128
N=C(N)NN=Cc1ccc(C#CC#Cc2ccc(Cl)cc2)cc1 [Compound 6g, 2-(4-((4-Chlorophenyl)buta-1,3-diyn-1-yl)benzylidene)hydrazine-1-carboximidamide]	> 128	> 128	128 (≈ 399 µM)	128 (≈ 399 µM)	128 (≈ 399 µM)	> 128	> 128	> 128	> 128	–	–	202 to 205	–	–	–	–	≥ 128
N=C(N)NN=Cc1ccc(C#CC#Cc2cccc(Br)c2)cc1 [Compound 6i, 2-(4-((3-Bromophenyl)buta-1,3-diyn-1-yl)benzylidene)hydrazine-1-carboximidamide]	128 (≈ 350 µM)	2 (≈ 5.48 µM)	0.5 (≈ 1.37 µM)	64 (≈ 175 µM)	128 (≈ 350 µM)	128 (≈ 350 µM)	> 128	2 (≈ 5.48 µM)	0.5 (≈ 1.37 µM)	–	–	196 to 198	–	–	–	–	≥ 128
COc1c(N2CCNC(C)C2)c(F)cc2c(=O)c(C(=O)O)cn(C3CC3)c12 (stereo not drawn) [Gatifloxacin, reference compound]	0.125 (≈ 0.333 µM)	2 (≈ 5.33 µM)	1 (≈ 2.66 µM)	0.125 (≈ 0.333 µM)	0.125 (≈ 0.333 µM)	2 (≈ 5.33 µM)	2 (≈ 5.33 µM)	0.125 (≈ 0.333 µM)	1 (≈ 2.66 µM)	0.25 (≈ 0.666 µM)	0.5 (≈ 1.33 µM)	–	1 (≈ 2.66 µM)	–	–	–	–

Now from value to compound, other results behind:

MIC [1] [µg/mL]	MIC [2] [µg/mL]	MIC [3] [µg/mL]	MIC [4] [µg/mL]	MIC [5] [µg/mL]	MIC [6] [µg/mL]	MIC [7] [µg/mL]	MIC [8] [µg/mL]	MIC [9] [µg/mL]	MIC [10] [µg/mL]	MIC [11] [µg/mL]	melting point [°C]	MIC [12] [µg/mL]	SMILES	IC50 (A549) [µg/mL]	IC50 (SGC7901) [µg/mL]	IC50 (L02) [µg/mL]	MIC (tested bacterial strains) [µg/mL]
2 (≈ 6.74 µM)	1 (≈ 3.37 µM)	0.5 (≈ 1.68 µM)	2 (≈ 6.74 µM)	8 (≈ 27 µM)	4 (≈ 13.5 µM)	> 128	0.5 (≈ 1.68 µM)	2 (≈ 6.74 µM)	0.5 (≈ 1.68 µM)	2 (≈ 6.74 µM)	200 to 203	–	N=C(N)NN=Cc1ccc(C#Cc2ccccc2Cl)cc1 [Compound 3e, 2-(4-((2-Chlorophenyl)ethynyl)benzylidene)hydrazine-1-carboximidamide]	4.57 (≈ 15.4 µM)	0.45 (≈ 1.52 µM)	12.4 (≈ 41.9 µM)	–
1 (≈ 3.37 µM)	0.5 (≈ 1.68 µM)	0.5 (≈ 1.68 µM)	2 (≈ 6.74 µM)	4 (≈ 13.5 µM)	2 (≈ 6.74 µM)	> 128	1 (≈ 3.37 µM)	2 (≈ 6.74 µM)	–	–	213 to 214	–	N=C(N)NN=Cc1ccc(C#Cc2cccc(Cl)c2)cc1 [Compound 3f, 2-(4-((3-Chlorophenyl)ethynyl)benzylidene)hydrazine-1-carboximidamide]	2.55 (≈ 8.59 µM)	0.3 (≈ 1.01 µM)	10.2 (≈ 34.5 µM)	–
2 (≈ 5.86 µM)	1 (≈ 2.93 µM)	1 (≈ 2.93 µM)	2 (≈ 5.86 µM)	2 (≈ 5.86 µM)	2 (≈ 5.86 µM)	> 128	1 (≈ 2.93 µM)	1 (≈ 2.93 µM)	0.5 (≈ 1.47 µM)	2 (≈ 5.86 µM)	223 to 225	–	N=C(N)NN=Cc1ccc(C#Cc2cccc(Br)c2)cc1 [Compound 3i, 2-(4-((3-Bromophenyl)ethynyl)benzylidene)hydrazine-1-carboximidamide]	4.03 (≈ 11.8 µM)	1.26 (≈ 3.69 µM)	19.6 (≈ 57.5 µM)	–
> 128	0.5 (≈ 1.75 µM)	0.5 (≈ 1.75 µM)	128 (≈ 447 µM)	128 (≈ 447 µM)	1 (≈ 3.49 µM)	> 128	0.5 (≈ 1.75 µM)	0.5 (≈ 1.75 µM)	0.5 (≈ 1.75 µM)	4 (≈ 14 µM)	209 to 212	> 64	N=C(N)NN=Cc1ccc(C#CC#Cc2ccccc2)cc1 [Compound 6a, 2-(4-(Phenylbuta-1,3-diyn-1-yl)benzylidene)hydrazine-1-carboximidamide]	2.49 (≈ 8.7 µM)	1.63 (≈ 5.69 µM)	13.4 (≈ 46.7 µM)	–
128 (≈ 399 µM)	4 (≈ 12.5 µM)	0.5 (≈ 1.56 µM)	8 (≈ 24.9 µM)	64 (≈ 200 µM)	4 (≈ 12.5 µM)	> 128	0.25 (≈ 0.779 µM)	1 (≈ 3.12 µM)	0.5 (≈ 1.56 µM)	8 (≈ 24.9 µM)	207 to 210	–	N=C(N)NN=Cc1ccc(C#CC#Cc2ccccc2Cl)cc1 [Compound 6e, 2-(4-((2-Chlorophenyl)buta-1,3-diyn-1-yl)benzylidene)hydrazine-1-carboximidamide]	3.62 (≈ 11.3 µM)	1.48 (≈ 4.61 µM)	14.8 (≈ 46.1 µM)	–
32 (≈ 107 µM)	2 (≈ 6.66 µM)	0.5 (≈ 1.66 µM)	4 (≈ 13.3 µM)	128 (≈ 426 µM)	4 (≈ 13.3 µM)	> 128	1 (≈ 3.33 µM)	0.5 (≈ 1.66 µM)	–	–	202 to 204	–	Cc1cccc(C#CC#Cc2ccc(C=NNC(=N)N)cc2)c1 [Compound 6k, 2-(4-(m-Tolylbuta-1,3-diyn-1-yl)benzylidene)hydrazine-1-carboximidamide]	3.58 (≈ 11.9 µM)	0.55 (≈ 1.83 µM)	14.8 (≈ 49.2 µM)	–
